Measured values as given in a melting point compilation (Tetko et al.; mined from patent text by program, amines drawn as free bases though some values may be those of a salt).

Compound | melting point
COC(=O)c1cc2cc(C=O)c3ccccc3c2s1 | 208 °C
O=C(c1ccccc1)c1cc(Cl)ccc1-n1cnnc1 | 182 to 184 °C
CCNC(=O)c1nn(-c2ccc(Cl)cc2)c(=O)c2c(N)scc12 | 203 to 205 °C
Cc1ccccc1C(Oc1cc(OCc2ccncc2)ccc1C#N)c1nnn[nH]1 (racemic) | 132 to 133 °C
COc1ccccc1N1CCN(CCc2c(C)c3ccc(OC)c(OC)c3oc2=O)CC1 | 146 to 148 °C
COc1ccc(-c2coc3cc(OCC(O)CN4CCOCC4)ccc3c2=O)cc1OC (stereo unspecified) | 135 to 136 °C
CCCCC(C(C)C)C(CN)CC(=O)O (stereo unspecified) | 160 to 170 °C
CC(C)(C)c1cccc(S(=O)(=O)n2c(Cc3ccc(C(=O)O)s3)cc3cc(C(F)(F)F)ccc32)c1 | 110 °C
COc1cc(Cl)cc(C(=O)C(F)(F)F)c1N | 124 to 126 °C
Nc1ccc(Cl)cc1C(=O)c1ccccc1OCc1ccccc1 | 110 to 111 °C
COc1ccc(C(=O)O)cc1C1(C)CCCCC1 | 199 °C
COc1cc2ncc(C#N)c(Nc3cccc(O)c3C)c2cc1OC | 255 to 257 °C
O=C(CCc1ccccc1)Nc1ccc(CN2C(=O)[C@H]3CCC[C@H]3N(C(=O)CN3C(=O)c4ccccc4C3=O)c3ccccc32)cc1 (relative stereo) | 222 °C
c1ccc2c(-c3nnn[nH]3)cccc2c1 | 205 to 206 °C
O=C(NCC(F)(F)F)c1ccc(C=NO)cc1 | 153 to 154 °C
O=C1NC(=O)c2c(-c3ccccc3[N+](=O)[O-])ccc(-c3ccccc3)c21 | 224 to 226 °C
COc1cc(/C=C/c2cc(OC)c(OC)c(OC)c2)cc(OC)c1OC | 220 °C
Oc1ccc(Oc2ccc(Oc3ccc(O)cc3)cc2)cc1 | 187 to 189 °C
Cc1ccc(-c2ccc(C(=O)Nc3ccc4cc(CN5CCCC5)ccc4c3)cn2)cc1 | 260 to 262 °C
CC1CCOC(CBr)(c2ccc(Oc3ccccc3)cc2)O1 (stereo unspecified) | 96 to 106 °C
O=[N+]([O-])c1ccc(CSSCc2ccc([N+](=O)[O-])cc2)cc1 | 126 °C
COc1ccccc1NC(=O)Nc1nc(Nc2ccccc2-c2ccccc2)nc(N(CCC(=O)O)Cc2ccc(F)c(F)c2)n1 | 115 to 120 °C
C#Cc1ccc2c(c1)CC1SC(c3ccccc3)=NC21O (stereo unspecified) | 118 °C
C=CC(=O)OC(COc1ccc(C(=O)c2ccccc2)c(O)c1)COc1ccc(C(=O)c2ccccc2)c(O)c1 | 98 to 100 °C

Compound | melting point
O=S1(=O)c2cccc3cccc(c23)N1CC(O)CN1CCN(c2ccc(F)cc2)CC1 (stereo unspecified) | 130 °C
CSc1nc(N)nc(-c2ccccc2)c1-c1ccc(=O)n(C)n1 | 233 to 235 °C
CN(CCCN)S(=O)(=O)CCC(F)(F)C(F)(F)C(F)(F)C(F)(F)C(F)(F)C(F)(F)F | 135 °C
OC(CNCCCc1ccc(OCCOCCc2ccccc2)cc1)COc1ccccc1 (racemic) | 76 to 78 °C
CCNC(=O)c1ccc(CN2CCN(c3ccncc3)CC2)cc1 | 213 to 215 °C
CCOC(=O)N1C=CC(c2c(-c3ccccc3)nn3ccccc23)C=N1 (stereo unspecified) | 173 to 174 °C
O=C(O)CCC1CCN(C(=O)OCc2ccc([N+](=O)[O-])cc2)CC1 | 98 to 99 °C
Cc1ccc(CNC(=O)C(=O)NCCc2ccccn2)n1C | 147 to 149 °C
CC1(C)SC(c2ccccc2OCCO[N+](=O)[O-])NC1C(=O)O (stereo unspecified) | 98 to 101 °C
CCN1CCC[C@H]1C(N)=O | 107 to 108 °C
Cc1ccc(N2N=C3c4cc(OCCCN(C)C)ccc4CCC3CC2=O)cc1 (stereo unspecified) | 159 to 162 °C
C=C(C)C(OC(=O)Nc1cc(OC(=O)Oc2cc(NC(=O)OC(C(=C)C)C(=O)OC)c(F)cc2Cl)c(Cl)cc1F)C(=O)OC (stereo unspecified) | 72 to 74 °C
Brc1ccc2c(c1)C=NC=CN2 | 135 to 138 °C
CCCNC(=S)c1ccc2c(c1)N(C(C)CN(CC)CC)c1ccc(Cl)cc1S2 (racemic) | 130 °C
CS(=O)(=O)N[C@@H]1CN2C(=O)N(c3cc(Cl)nc(Cl)c3)C(=O)[C@@]2(Cc2ccc(OC(F)(F)F)cc2)C1 | 207 °C
COc1ccc(C[C@@H]2CCc3ncc(C)cc3C2)cc1 | 46 to 48 °C
Cc1c(NC(=O)Nc2ccc(-n3nc(C(F)(F)F)cc3C(F)(F)F)cc2)cccc1[N+](=O)[O-] | 235 to 236 °C
COCOc1cc(F)ccc1-c1cc(-c2cccc(NC(=O)CN3CCCCC3)c2)c(C#N)c(NC(=O)c2ccco2)n1 | 140 to 142 °C
COc1cc([N+](=O)[O-])c(CO)c(OC)c1OC | 69 to 70 °C
CC1C(=O)c2cc(NS(C)(=O)=O)ccc2OC12CCN(CCc1ccccn1)CC2 (stereo unspecified) | 210 to 211 °C
CCCNS(=O)(=O)c1ccc(Nc2nc(OCC3CCCCC3)c3nc[nH]c3n2)cc1 | 207 to 208 °C
CCOC(=O)c1c(-c2ccc(F)cc2)c2ccccn2c1C(C)C | 99 to 100 °C
OC(CNc1ncnc2nc[nH]c12)CN1CCN(C(c2ccc(F)cc2)c2ccc(F)cc2)CC1 (stereo unspecified) | 140 to 170 °C
Cc1nc2c(NCc3c(C)cccc3C)cc(C(=O)N(C)C)cc2[nH]1 | 203 °C

Compound | melting point
O=C(NCCCCCCOCc1ccc(OCc2ccccc2)cc1)c1cc(-c2cccc(C(F)(F)F)c2)c(O)c(-c2cccc(C(F)(F)F)c2)c1 | 127 to 130 °C
CC1(C)CC2(CC(C)(C)c3ccc(Oc4ccc([N+](=O)[O-])cc4)cc32)c2cc(Oc3ccc([N+](=O)[O-])cc3)ccc21 | 200 to 202 °C
Cc1cccc(NC#N)c1N1CCOCC1 | 137 to 138 °C
COc1cc(OC)nc(NC(=O)NS(=O)(=O)c2ccccc2S(N)(=O)=O)n1 | 192 to 193 °C
CC(C)c1cc(C(=O)Nc2ccc(CC(=O)O)cc2)oc1C(C)C | 154 to 156 °C
C#CCOc1cc(C)nc(-c2cccc(CCC)n2)n1 | 92.5 °C
CC(C)N(N)C(=O)N1CCCC1C(=O)OC(C)(C)C (stereo unspecified) | 87 to 91 °C
COc1cc(Cl)cc(CC(O)CO)c1OCc1ccccc1 (stereo unspecified) | 65 to 68 °C
CNC(=O)[C@H]1S[C@@H](n2cnc3c(N)nc(Cl)nc32)[C@H](O)[C@@H]1O | 233 to 235 °C
CNc1ccsc1C(=O)CS(C)=O (stereo unspecified) | 125 to 127 °C
COc1cc2sc(=O)n(C(C)=O)c2cc1OC | 164 to 165 °C
C[C@H](NS(=O)(=O)c1ccc(-c2c(C#N)c3ccc(C4CC4)cc3n2-c2ncccn2)nc1)C(F)(F)F | 181 to 184 °C
COc1ccc2c(c1)C1(CCN(Cc3ccccc3)CC1)OC2c1ccc(F)cc1 (stereo unspecified) | 86 to 88 °C
COc1ccc2cc(-c3ccc(Cl)c(-n4nc(C)c(C)n4)c3)c(=O)oc2c1 | 180 °C
CN(C)C(=O)Sc1ccccc1C#N | 70 °C
CC1NN(Cc2ccc(Cl)cc2)C(=O)NC1=O (stereo unspecified) | 155 °C
COC(=O)[C@@H]1CCCC[C@@H]1C(=O)N(C)CC(=O)NO (relative stereo) | 101 to 102 °C
CCOC(=O)c1ccc(-c2nc(-c3ccccc3)ccc2Cl)cc1 | 81 to 82 °C
COc1cc2c(cc1Cl)C(=O)CC(C)O2 (stereo unspecified) | 96 to 100 °C
CCCCOc1cc(C(=O)O)cc(N)c1C(=O)c1ccc(C)cc1 | 170 to 172 °C
Oc1ccc(OCc2ccccc2)c2ccccc12 | 118 to 119 °C
O=c1c2c(CCC(F)(F)F)n[nH]c2c2cccnc2n1-c1ccccc1 | 272 to 274 °C
CCCn1nc2c(N)nc3ccccc3c2c1NCCC1CCN(C(=O)NC(C)C)CC1 | 168 to 170 °C
CCOc1c(C(C)=O)cnc2c1cnn2Cc1ccco1 | 139 to 141 °C

Compound | melting point
CC(C)C[C@H](NC(=O)OCc1ccco1)C(=O)N[C@@H](Cc1ccccc1)C(=O)CSCc1ccco1 | 115 to 118 °C
CN(C)Cc1ccc(CSCCNC(=N)N[N+](=O)[O-])s1 | 118 °C
OC[C@@H]1CNCc2cc3ccc(C(F)(F)F)cc3n21 | 126 to 127 °C
CS(=O)(=O)c1ccc(Oc2ccc(SC(F)(F)F)cc2)nc1 | 134 to 135 °C
O=C(O)c1ccccc1Nc1ccnn1-c1ccccn1 | 216 to 218 °C
COc1ccc([N+](=O)[O-])c(NC(C)=O)c1 | 129 °C
N#Cc1ccc(N2CCC(CO)CC2)c2ccccc12 | 135 to 136 °C
Cc1ncccc1CN(CCn1cc(C)c2occc2c1=O)Cc1ccc2c(c1)N(CC(C)C)C(=O)C(C)(C)C(=O)N2 | 206 to 208 °C
CC(C)c1n[nH]c2c(NCc3ccc(O)cc3)ncnc12 | 234 to 236 °C
Cc1cc(C23CC4CC(CC(C4)C2)C3)ccc1NS(=O)(=O)c1cc([N+](=O)[O-])ccc1Cl | 238 °C
Oc1ccc(-c2noc(C3(C(O)(C4CC4)C4CC4)CC3)c2-c2ccccc2)cc1 | 169 to 170 °C
CC1(C)OC(=C(C#N)C#N)C(C#N)=C1c1ccc(-c2cn(-c3ccccc3)nn2)cc1 | 298 °C
C=CCNC(=O)NC(CCC)(CCC)CCC | 66 °C
CCCn1nc2c(N)nc3ccccc3c2c1CCCc1cc[nH]c1 | 173 to 174 °C
CCOC(=O)c1cnc2c(SSc3ccccc3[N+](=O)[O-])cccn2c1=O | 191 to 193 °C
CCOC(=O)C(C)OCC#Cc1cc(Cl)ccc1NS(=O)(=O)c1ccc2ncsc2c1 (stereo unspecified) | 166 to 168 °C
O=C1CCC(n2cnc(-c3ccc(F)cc3)c2-c2ccnc(O)n2)CC1 | 236 to 238 °C
Cc1c(Nc2c(C#N)cnc3scc(C)c23)ccc2[nH]ccc12 | 261 °C
Cc1c(-c2ccc([N+](=O)[O-])cc2)sc2c1c(=O)c(OC(C)C)cn2Cc1c(F)cccc1F | 188 to 189 °C
CS(=O)(=O)c1ccc(-c2c(F)c(F)c(F)c(F)c2-c2ccc(F)cc2)cc1 | 134 to 135 °C
Cc1cccc(N2CCOC2=O)c1CNc1cccn2c(Cl)c(C)nc12 | 137 to 139 °C
Nc1ccccc1-c1cccc(C(=O)O)c1 | 170 °C
O=C(O)COc1ccc(OCC2CCN(c3ccncc3)CC2)cc1 | 278 to 281 °C
CCOC(=O)CC[C@H](NC(=O)c1ccc(CNCc2cnc3nc(NC(=O)C(C)(C)C)nc(O)c3c2)cc1)C(=O)OCC | 149 to 151 °C
